Here are results for one compound from patent US6566374B1, “Method of treating or preventing microbial infections with loperamide” (priority 1998, dated 2003).

Common to all, as to format: cell-based
Experiment [1] has as its system Bacillus subtilis ATCC 6633. The experiment in a line: Nominal Inhibitory Concentration (spiral plater). The following applies: 24 hrs BA 37° C. The protocol:
(§1) A broth, appropriate to the microorganism to be tested (see Table 1 below), was inoculated aseptically from a pure plate culture and then incubated as indicated in Table 1.
(§2) Following the correct incubation, the liquid culture was diluted in a sterile saline solution to give approximately 10^5 to 10^6 CFU/ml. The suspension was serially diluted and spread plates were prepared for each dilution so as to obtain an accurate CFU/ml value.
(§3) The spiral plater was prepared by passing one cupule of IMS followed by one cupule of sterile water through the plater with the valve open and vacuum pump on. With the spiral plater cam on “Linear Deposition”, the suspension of micoorganism to be tested was placed in a new cupule. The suspension was taken up, ensuring that the glass tube was full, and the organisms were then deposited in an even spiral onto agar plates.
(§4) The depth of the agar was measured on the plates and this value recorded. Negative control plates with no added active were produced in triplicate.
(§5) The spiral plater was washed with one cupule of IMS and one cupule of sterile deionised water in-between the inoculation of different microbial samples. Once the microbial inocula had dried, the spiral plater was washed and the cam changed to “Gradient Deposition”. The antimicrobial solution was deposited in a spiral gradient directly on top of the dried inoculated spiral. Loperamide hydrochloride was used at concentrations of 1% and 0.3% made up in 50% dimethyl sulphoxide.
(§6) The spiral plater was washed with one cupule of IMS and one of sterile deionised water in-between different antimicrobial solutions. The solutions were left to dry before being incubated, at 37° C. for 24 hr, +/−6 hr or 48 hr +/−6 hr for anaerobes (see Table 1).
(§7) Following incubation, the control plates were checked to have grown to the end of the spiral inoculum. Digital calipers were used to measure the distance between the inoculation point and the point where confluent growth starts. The distance value termed the Radial Advance was used to determine the Deposition Factor (DF). The NIC can be calculated from the following formula:
(§8) NIC=Nominal Inhibitory Concentration (e.g. ppm)
(§9) SC=Stock concentration of antimicrobial (e.g. ppm)
(§10) ha=height of agar in plate (mm)

Experiment [2] has as its system Candida albicans NCYC 1363. The experiment in a line: Nominal Inhibitory Concentration (spiral plater). The following applies: 24 hrs SDA 37° C. The protocol:
as §1, §2, §3, §4, §5, §6, §7, §8, §9, §10

For experiment [3], the system named is Escherichia coli NCTC 8545. The experiment in a line: Nominal Inhibitory Concentration (spiral plater). As to conditions: 24 hrs BA 37° C. The protocol:
as §1, §2, §3, §4, §5, §6, §7, §8, §9, §10

The subject of experiment [4] is Fusobacterium nucleatum NCTC 10562. The experiment in a line: Nominal Inhibitory Concentration (spiral plater). As to conditions: 48 hrs BA 37° C. (anaerobically). The protocol: as §1, §2, §3, §4, §5, §6, §7, §8, §9, §10
In experiment [5] the test system is Lactobacillus acidophillus NCTC 4505. The experiment in a line: Nominal Inhibitory Concentration (spiral plater). The following applies: 24 hrs BA 37° C. The protocol:
as §1, §2, §3, §4, §5, §6, §7, §8, §9, §10

For experiment [6], the system named is Micrococcus luteus NCIB 8166. The experiment in a line: Nominal Inhibitory Concentration (spiral plater). The following applies: 24 hrs BA 37° C. The protocol: as §1, §2, §3, §4, §5, §6, §7, §8, §9, §10
Experiment [7] relates to Propionibacterium acnes NCTC 737. In words: Nominal Inhibitory Concentration (spiral plater). As to conditions: 48 hrs BA 37° C. anaerobically, loperamide hydrochloride 1% and 0.3% in 50% dimethyl sulphoxide. The protocol: as §1, §2, §3, §4, §5, §6, §7, §8, §9, §10
For experiment [8], the system named is Pseudomonas aeruginosa ATCC 9027. In words: Nominal Inhibitory Concentration (spiral plater). The following applies: 24 hrs BA 37° C. The protocol:
as §1, §2, §3, §4, §5, §6, §7, §8, §9, §10

Experiment [9] has as its system Pseudomonas cepacia ATCC 25416. The experiment in a line: Nominal Inhibitory Concentration (spiral plater). As to conditions: 24 hrs BA 37° C. The protocol:
as §1, §2, §3, §4, §5, §6, §7, §8, §9, §10

Experiment [10] relates to Pseudomonas stutzeri NCTC 10475. The experiment in a line: Nominal Inhibitory Concentration (spiral plater). The following applies: 24 hrs BA 37° C. The protocol: as §1, §2, §3, §4, §5, §6, §7, §8, §9, §10
Experiment [11] relates to Sphingomonas paucimobilis NCTC 11030. In words: Nominal Inhibitory Concentration (spiral plater). As to conditions: 24 hrs BA 37° C. The protocol: as §1, §2, §3, §4, §5, §6, §7, §8, §9, §10
The subject of experiment [12] is Staphylococcus aureus ATCC 6538. The experiment in a line: Nominal Inhibitory Concentration (spiral plater). As to conditions: 24 hrs TSA 37° C. The protocol: as §1, §2, §3, §4, §5, §6, §7, §8, §9, §10
Experiment [13] relates to Staphylococcus epidermidis ATCC 8853. In words: Nominal Inhibitory Concentration (spiral plater). The following applies: 24 hrs TSA 37° C. The protocol: as §1, §2, §3, §4, §5, §6, §7, §8, §9, §10
The test system of experiment [14] is Streptococcus mutans NCTC 11061. In words: Nominal Inhibitory Concentration (spiral plater). As to conditions: 24 hrs BA 37° C. The protocol: as §1, §2, §3, §4, §5, §6, §7, §8, §9, §10
Experiment [15] deals with Streptococcus oralis NCTC 11427. In words: Nominal Inhibitory Concentration (spiral plater). The following applies: 24 hrs BA 37° C. The protocol: as §1, §2, §3, §4, §5, §6, §7, §8, §9, §10
Experiment [16] has as its system Streptococcus sanguis NCTC 10904. In words: Nominal Inhibitory Concentration (spiral plater). As to conditions: 24 hrs BA 37° C. The protocol: as §1, §2, §3, §4, §5, §6, §7, §8, §9, §10
Experiment [17] deals with S. mutans, S. sanguis, S. aureus, C. albicans, Methicillin resistant S. aureus, P. acnes. The experiment in a line: Effective kill times of antimicrobial solutions. As to conditions: loperamide in 2.5% dimethyl sulphoxide; sampled at 30 seconds, 1, 2 and 5 minutes; data only in FIGS. 1-6. The protocol: A suitable broth culture of the test organism was prepared (see Table 3 below). Cultures were diluted (1:10) using a Ringer and Peptone solution. 30 ml volumes of loperamide made up in 2.5% dimethyl sulphoxide were prepared. The samples were then inoculated with 30 ml of the initial microorganism suspension, and at time intervals of 30 seconds, 1, 2 and 5 minutes, 1 ml of the sample was removed and added to 9 ml of Dey-Engley neutralizing broth. Two further serial dilutions were then prepared.
0.1 ml from the Dey-Engley broths and subsequent dilutions were spread plated and then incubated. See Table 3 below for the appropriate agar and incubation conditions.

Regarding `CN(C)C(=O)C(CCN1CCC(O)(c2ccc(Cl)cc2)CC1)(c1ccccc1)c1ccccc1` [Loperamide, 4-(p-chlorophenyl)-4-hydroxy-N,N-dimethyl-α,α-diphenyl-1-piperidinebutyramide], the NIC in experiment [1] is reported as 9 ppm; in experiment [2], 39 ppm; in experiment [3], over 165 ppm; in [4] it was 7 ppm; in experiment [5] it was 18 ppm; in [6], 9 ppm. In addition, the NIC in [7] is listed as 16 ppm; in experiment [8], over 165 ppm; in [9], 36 ppm; in [10], 21 ppm; in experiment [11], 11 ppm; in [12], 34 ppm. Also, the NIC in [13] turned out to be 33 ppm; in experiment [14], 30 ppm; in experiment [15], 24 ppm; in [16], 27 ppm. Further, the “bactericidal properties (kill time)” value in experiment [17] is listed as “good bactericidal properties”.
